Test results as given in US20220175768A1, “FGFR TYROSINE KINASE INHIBITORS FOR THE TREATMENT OF UROTHELIAL CARCINOMA” (Janssen Pharmaceutica NV, priority 2019, published 2022).
Where two headings read alike, the source gives them in different places.

[1] = 8 mg continuous, selected regimen 3 (n = 99)
[2] = 8 mg continuous, selected regimen 3 (n = 99), Table 14
[3] = 10 mg intermittent, regimen 1 (n = 33)

Protocol: Study treatment was administered on 28-day cycles. Prior to interim analysis 1, there were 2 treatment regimens. Patients were randomized 1:1 to 28-day cycles to the following 2 regimens until a regimen was selected for further study: Regimen 1 (10 mg once daily intermittent (7 days on/7 days); Regimen 2 (6 mg once daily continuous). Randomization was stratified according to performance status (0 to 1 vs. 2), hemoglobin value (<10 vs. ≥10 g per dl), FGFR alteration type (mutation vs. fusion), prior treatment status (chemotherapy-resistant vs. chemotherapy naïve), and disease distribution (presence or absence of visceral [liver, lung, bone] metastases). Starting dose selection was based on phase 1 efficacy and tolerability.
Thus, after interim analysis, this became a single-arm study. […] Treatment continued until disease progression or unacceptable adverse event(s) per investigator.
All objective responses required confirmation by an additional investigator assessment within 4 to 6 weeks of first assessment. Disease evaluations for regimen 3 were also performed by an independent radiographic review committee. […] Safety was evaluated based on clinical laboratory tests, physical exams, electrocardiograms, and ophthalmology examinations. Adverse events and abnormalities were assessed by investigator and graded per NCI CTCAE v.4.0
Prophylactic measures were taken to minimize risk of common adverse events related to FGFR inhibition. To reduce risk of hyperphosphatemia, a low-phosphate diet was recommended for all patients (600 to 800 mg of dietary phosphate intake per day). To reduce the risk of skin effects, the application of alcohol-free emollient moisturizing cream and avoidance of unnecessary exposure to sunlight, soap, perfumed products, and hot baths was recommended. Patients were asked to keep their fingers and toes clean and nails trimmed to reduce risk of nail effects.
Additional ophthalmology examinations were performed if clinically indicated.

COc1cc(OC)cc(N(CCNC(C)C)c2ccc3ncc(-c4cnn(C)c4)nc3c2)c1 [erdafitinib, N-(3,5-dimethoxy-phenyl)-N′-(1-methylethyl)-N-[3-(1-methyl-1H-pyrazol-4-yl)quinoxalin-6-yl]ethane-1,2-diamine]
Patients with Hyperphosphatemia, Grade ≥3 [1]: 2 (2) no. (%) | Patients with Hypomagnesemia, Any grade [1]: 10 (10) no. (%) | Patients with Hypomagnesemia, Grade 1 [1]: 9 (9) no. (%) | Patients with Hypomagnesemia, Grade 2 [1]: 1 (1) no. (%) | Patients with Hypomagnesemia, Grade ≥3 [1]: 0 no. (%) | Patients with Hyponatremia, Any grade [1]: 12 (12) no. (%) | Patients with Hyponatremia, Grade 1 [1]: 1 (1) no. (%) | Patients with Hyponatremia, Grade 2 [1]: 0 no. (%) | Patients with Hyponatremia, Grade ≥3 [1]: 11 (11) no. (%) | Patients with Insomnia, Any grade [1]: 7 (7) no. (%) | Patients with Insomnia, Grade 1 [1]: 4 (4) no. (%) | Patients with Insomnia, Grade 2 [1]: 3 (3) no. (%) | Patients with Insomnia, Grade ≥3 [1]: 0 no. (%) | Patients with Lacrimation increased, Any grade [1]: 11 (11) no. (%) | Patients with Lacrimation increased, Grade 1 [1]: 8 (8) no. (%) | Patients with Lacrimation increased, Grade 2 [1]: 3 (3) no. (%) | Patients with Lacrimation increased, Grade ≥3 [1]: 0 no. (%) | Patients with Nail dystrophy, Any grade [1]: 16 (16) no. (%) | Patients with Nail dystrophy, Grade 1 [1]: 5 (5) no. (%) | Patients with Nail dystrophy, Grade 2 [1]: 5 (5) no. (%) | Patients with Nail dystrophy, Grade ≥3 [1]: 6 (6) no. (%) | Patients with Nausea, Any grade [1]: 20 (20) no. (%) | Patients with Nausea, Grade 1 [1]: 13 (13) no. (%) | Patients with Nausea, Grade 2 [1]: 6 (6) no. (%) | Patients with Nausea, Grade ≥3 [1]: 1 (1) no. (%) | Patients with Onycholysis, Any grade [1]: 18 (18) no. (%) | Patients with Onycholysis, Grade 1 [1]: 6 (6) no. (%) | Patients with Onycholysis, Grade 2 [1]: 10 (10) no. (%) | Patients with Onycholysis, Grade ≥3 [1]: 2 (2) no. (%) | Patients with Onychomadesis, Any grade [1]: 7 (7) no. (%) | Patients with Onychomadesis, Grade 1 [1]: 2 (2) no. (%) | Patients with Onychomadesis, Grade 2 [1]: 5 (5) no. (%) | Patients with Onychomadesis, Grade ≥3 [1]: 0 no. (%) | Patients with Oropharyngeal pain, Any grade [1]: 10 (10) no. (%) | Patients with Oropharyngeal pain, Grade 1 [1]: 8 (8) no. (%) | Patients with Oropharyngeal pain, Grade 2 [1]: 1 (1) no. (%) | Patients with Oropharyngeal pain, Grade ≥3 [1]: 1 (1) no. (%) | Patients with Pain in extremity, Any grade [1]: 12 (12) no. (%) | Patients with Pain in extremity, Grade 1 [1]: 10 (10) no. (%) | Patients with Pain in extremity, Grade 2 [1]: 2 (2) no. (%) | Patients with Pain in extremity, Grade ≥3 [1]: 0 no. (%) | Patients with Paronychia, Any grade [1]: 17 (17) no. (%) | Patients with Paronychia, Grade 1 [1]: 3 (3) no. (%) | Patients with Paronychia, Grade 2 [1]: 11 (11) no. (%) | Patients with Paronychia, Grade ≥3 [1]: 3 (3) no. (%) | Patients with Peripheral edema, Any grade [1]: 9 (9) no. (%) | Patients with Peripheral edema, Grade 1 [1]: 5 (5) no. (%) | Patients with Peripheral edema, Grade 2 [1]: 3 (3) no. (%) | Patients with Peripheral edema, Grade ≥3 [1]: 1 (1) no. (%) | Patients with Pyrexia, Any grade [1]: 13 (13) no. (%) | Patients with Pyrexia, Grade 1 [1]: 8 (8) no. (%) | Patients with Pyrexia, Grade 2 [1]: 5 (5) no. (%) | Patients with Pyrexia, Grade ≥3 [1]: 0 no. (%) | Patients with Retinal detachment, Any grade [1]: 5 (5) no. (%) | Patients with Retinal detachment, Grade 1 [1]: 3 (3) no. (%) | Patients with Retinal detachment, Grade 2 [1]: 2 (2) no. (%) | Patients with Retinal detachment, Grade ≥3 [1]: 0 no. (%) | Patients with Stomatitis, Any grade [1]: 57 (58) no. (%) | Patients with Stomatitis, Grade 1 [1]: 21 (21) no. (%) | Patients with Stomatitis, Grade 2 [1]: 26 (26) no. (%) | Patients with Stomatitis, Grade ≥3 [1]: 10 (10) no. (%) | Patients with Urinary tract infection, Any grade [1]: 16 (16) no. (%) | Patients with Urinary tract infection, Grade 1 [1]: 0 no. (%) | Patients with Urinary tract infection, Grade 2 [1]: 11 (11) no. (%) | Patients with Urinary tract infection, Grade ≥3 [1]: 5 (5) no. (%) | Patients with Vision blurred, Any grade [1]: 17 (17) no. (%) | Patients with Vision blurred, Grade 1 [1]: 10 (10) no. (%) | Patients with Vision blurred, Grade 2 [1]: 7 (7) no. (%) | Patients with Vision blurred, Grade ≥3 [1]: 0 no. (%) | Patients with Vomiting, Any grade [1]: 13 (13) no. (%) | Patients with Vomiting, Grade 1 [1]: 10 (10) no. (%) | Patients with Vomiting, Grade 2 [1]: 1 (1) no. (%) | Patients with Vomiting, Grade ≥3 [1]: 2 (2) no. (%) | Patients with Weight decreased, Any grade [1]: 15 (15) no. (%) | Patients with Weight decreased, Grade 1 [1]: 7 (7) no. (%) | Patients with Weight decreased, Grade 2 [1]: 8 (8) no. (%) | Patients with Weight decreased, Grade ≥3 [1]: 0 no. (%) | Patients with Alopecia, Grade ≥3 [2]: 0 no. | Patients with Decreased appetite, Grade ≥3 [2]: 0 no. | Patients with Dry mouth, Grade ≥3 [2]: 0 no. | Patients with Dry skin, Grade ≥3 [2]: 0 no. | Patients with Urinary tract infection, Grade 1 [2]: 0 no. | Patients with Vision blurred, Grade ≥3 [2]: 0 no. | Patients with some type of eye disorder, regardless of relation to treatment (8 mg per day continuous): 63% | Patients with grade ≥3 treatment-emergent adverse events (8 mg per day continuous group uptitrated to 9 mg per day): 68% | Patients with Abdominal pain, Any grade [3]: 5 (15) no. (%) | Patients with Abdominal pain, Grade 1 [3]: 2 (6) no. (%) | Patients with Abdominal pain, Grade 2 [3]: 2 (6) no. (%) | Patients with Abdominal pain, Grade ≥3 [3]: 1 (3) no. (%) | Patients with Alanine aminotransferase increased, Any grade [3]: 1 (3) no. (%) | Patients with Alanine aminotransferase increased, Grade 1 [3]: 0 no. (%) | Patients with Alanine aminotransferase increased, Grade 2 [3]: 1 (3) no. (%) | Patients with Alanine aminotransferase increased, Grade ≥3 [3]: 0 no. (%) | Patients with Alopecia, Any grade [3]: 4 (12) no. (%) | Patients with Alopecia, Grade 1 [3]: 2 (6) no. (%) | Patients with Alopecia, Grade 2 [3]: 2 (6) no. (%) | Patients with Alopecia, Grade ≥3 [3]: 0 no. (%) | Patients with Anemia, Any grade [3]: 8 (24) no. (%) | Patients with Anemia, Grade 1 [3]: 1 (3) no. (%) | Patients with Anemia, Grade 2 [3]: 1 (3) no. (%) | Patients with Anemia, Grade ≥3 [3]: 6 (18) no. (%) | Patients with Arthralgia, Any grade [3]: 7 (21) no. (%) | Patients with Arthralgia, Grade 1 [3]: 3 (9) no. (%) | Patients with Arthralgia, Grade 2 [3]: 2 (6) no. (%) | Patients with Arthralgia, Grade ≥3 [3]: 2 (6) no. (%) | Patients with Aspartate aminotransferase increased, Any grade [3]: 2 (6) no. (%) | Patients with Aspartate aminotransferase increased, Grade 1 [3]: 2 (6) no. (%) | Patients with Aspartate aminotransferase increased, Grade 2 [3]: 0 no. (%) | Patients with Aspartate aminotransferase increased, Grade ≥3 [3]: 0 no. (%) | Patients with Asthenia, Any grade [3]: 10 (30) no. (%) | Patients with Asthenia, Grade 1 [3]: 5 (15) no. (%) | Patients with Asthenia, Grade 2 [3]: 3 (9) no. (%) | Patients with Asthenia, Grade ≥3 [3]: 2 (6) no. (%) | Patients with Back pain, Any grade [3]: 5 (15) no. (%) | Patients with Back pain, Grade 1 [3]: 1 (3) no. (%) | Patients with Back pain, Grade 2 [3]: 1 (3) no. (%) | Patients with Back pain, Grade ≥3 [3]: 3 (9) no. (%) | Patients with Blood creatinine increased, Any grade [3]: 4 (12) no. (%) | Patients with Blood creatinine increased, Grade 1 [3]: 3 (9) no. (%) | Patients with Blood creatinine increased, Grade 2 [3]: 1 (3) no. (%) | Patients with Blood creatinine increased, Grade ≥3 [3]: 0 no. (%) | Patients with Conjunctivitis, Any grade [3]: 4 (12) no. (%) | Patients with Conjunctivitis, Grade 1 [3]: 3 (9) no. (%) | Patients with Conjunctivitis, Grade 2 [3]: 1 (3) no. (%) | Patients with Conjunctivitis, Grade ≥3 [3]: 0 no. (%) | Patients with Constipation, Any grade [3]: 14 (42) no. (%) | Patients with Constipation, Grade 1 [3]: 8 (24) no. (%) | Patients with Constipation, Grade 2 [3]: 6 (18) no. (%) | Patients with Constipation, Grade ≥3 [3]: 0 no. (%) | Patients with Decreased appetite, Any grade [3]: 11 (33) no. (%) | Patients with Decreased appetite, Grade 1 [3]: 4 (12) no. (%) | Patients with Decreased appetite, Grade 2 [3]: 6 (18) no. (%) | Patients with Decreased appetite, Grade ≥3 [3]: 1 (3) no. (%) | Patients with Diarrhea, Any grade [3]: 14 (42) no. (%) | Patients with Diarrhea, Grade 1 [3]: 7 (21) no. (%) | Patients with Diarrhea, Grade 2 [3]: 6 (18) no. (%) | Patients with Diarrhea, Grade ≥3 [3]: 1 (3) no. (%) | Patients with Dry eye, Any grade [3]: 3 (9) no. (%) | Patients with Dry eye, Grade 1 [3]: 2 (6) no. (%) | Patients with Dry eye, Grade 2 [3]: 1 (3) no. (%) | Patients with Dry eye, Grade ≥3 [3]: 0 no. (%) | Patients with Dry mouth, Any grade [3]: 16 (48) no. (%) | Patients with Dry mouth, Grade 1 [3]: 15 (46) no. (%) | Patients with Dry mouth, Grade 2 [3]: 1 (3) no. (%) | Patients with Dry mouth, Grade ≥3 [3]: 0 no. (%) | Patients with Dry skin, Any grade [3]: 9 (27) no. (%) | Patients with Dry skin, Grade 1 [3]: 8 (24) no. (%) | Patients with Dry skin, Grade 2 [3]: 1 (3) no. (%) | Patients with Dry skin, Grade ≥3 [3]: 0 no. (%) | Patients with Dysgeusia, Any grade [3]: 10 (30) no. (%) | Patients with Dysgeusia, Grade 1 [3]: 7 (21) no. (%) | Patients with Dysgeusia, Grade 2 [3]: 3 (9) no. (%) | Patients with Dysgeusia, Grade ≥3 [3]: 0 no. (%) | Patients with Dyspepsia, Any grade [3]: 3 (9) no. (%) | Patients with Dyspepsia, Grade 1 [3]: 2 (6) no. (%) | Patients with Dyspepsia, Grade 2 [3]: 1 (3) no. (%) | Patients with Dyspepsia, Grade ≥3 [3]: 0 no. (%) | Patients with Dyspnea, Any grade [3]: 8 (24) no. (%) | Patients with Dyspnea, Grade 1 [3]: 3 (9) no. (%) | Patients with Dyspnea, Grade 2 [3]: 2 (6) no. (%) | Patients with Dyspnea, Grade ≥3 [3]: 3 (9) no. (%) | Patients with Fatigue, Any grade [3]: 6 (18) no. (%) | Patients with Fatigue, Grade 1 [3]: 4 (12) no. (%) | Patients with Fatigue, Grade 2 [3]: 2 (6) no. (%) | Patients with Fatigue, Grade ≥3 [3]: 0 no. (%) | Patients with Hand-foot syndrome, Any grade [3]: 2 (6) no. (%) | Patients with Hand-foot syndrome, Grade 1 [3]: 0 no. (%) | Patients with Hand-foot syndrome, Grade 2 [3]: 2 (6) no. (%) | Patients with Hand-foot syndrome, Grade ≥3 [3]: 0 no. (%) | Patients with Hematuria, Any grade [3]: 3 (9) no. (%) | Patients with Hematuria, Grade 1 [3]: 1 (3) no. (%) | Patients with Hematuria, Grade 2 [3]: 2 (6) no. (%)
